Measured values reported in US12571794B2, “Epigen AU/11: a natural matrix for restoring homeostasis in cancer cell-infiltrated tissue” (priority 2024, dated 2026).
Where a name gives a salt, the structure may show the parent alone. Read-outs that look alike come from different tables or passages of the source.

How the values were obtained:
[1] = test system: endometrial tumour organoid Endometrium 12; settings: 72 hours; EpigenAU/11 0.66 mg/ml, carboplatin 100 nM, paclitaxel 100 nM
Protocol: (§1) 39A bladder 38, 39B bladder 41, 39C breast 203, 39D Endometrium 12. […] Breast organoids (Breast 203): Treated sequentially with paclitaxel (P, 50 nM)+carboplatin (C, 100 nM) for 72 hours, followed by epirubicin (E, 1 μM)+cyclophosphamide (Cy 7 μM) for an additional 72 hours. Endometrial organoid (Endometrium 12): Treated with carboplatin (C, 100 nM), paclitaxel (P, 100 nM), or their combination for 72 hours. ATP content, measured by CellTiter-Glo® 3D, is expressed as a percentage of cell viability, with untreated controls set at 100%. Statistical analysis was performed using one-way ANOVA followed by Dunnett's test, with significant differences denoted by p<0.002 (**) and p<0.0001 (****). Data are presented as mean±SD.

[2] = test system: explanted biopsies from FaDu graft; assay type: cell-based, human cells grown in immunocompromised mice; settings: 72 hours ex vivo; EpigenAU/11 50 mg/ml (pH 5.6), cisplatin 150 μg/ml, HCl to pH 5.6
Protocol: Analysis of cell viability in explanted biopsies from the FaDu (9A) and A431 (9B) cell lines was performed after 72 hours of ex vivo treatment. […] Cell viability was analysed using a flow cytometer with the Pacific Blue™ Annexin V/SYTOX™ AADvanced™ Apoptosis Kit, following the manufacturer's instructions. Viability is expressed as a percentage, with untreated controls set at 100%. One-way ANOVA analysis followed by Dunnett's test confirmed significant differences among the groups. Data are represented as mean±SD; *p<0.03;***p<0.0002.
(§3) Analysis of cell viability in explanted biopsies from the FaDu cell lines was performed after 72 hours of ex vivo treatment. […] Cell viability was analysed using a flow cytometer with the Pacific Blue™ Annexin V/SYTOX™ AADvanced™ Apoptosis Kit, following the manufacturer's instructions. Viability is expressed as a percentage, with untreated controls set at 100%. […]
as §3
Following the 72-hour treatment period, cell viability was analysed using flow cytometry.

[3] = test system: A431 xenografts; assay type: in vivo, athymic mice; settings: excised at end of 15-day treatment, six mice
Protocol: Tumour growth curve of A431 xenografts in athymic mice over 15 days of treatment. […] Tumour volume was measured every other day. Data are represented as mean±SEM; **p<0.02; ****p<0.001.
In this trial, athymic mice were subcutaneously injected with 1×10^6 A431 cells into their flank to develop xenograft tumours.

[4] = test system: Head and Neck Cancer patient-derived tumour organoids; assay: EpigenAU/11 combinations with chemotherapeutics on patient-derived tumour organoids (summary table); assay type: cell-based; settings: chemotherapy combined with EpigenAU/11
[5] = test system: explanted biopsies from A431 graft; assay: Ex vivo explanted biopsies, cell viability by flow cytometry (Annexin V); assay type: cell-based, human cells grown in immunocompromised mice; settings: 72 hours ex vivo; EpigenAU/11 50 mg/ml (pH 5.6), cisplatin 150 μg/ml, HCl to pH 5.6
Protocol: Analysis of cell viability in explanted biopsies from the FaDu (9A) and A431 (9B) cell lines was performed after 72 hours of ex vivo treatment. […] Cell viability was analysed using a flow cytometer with the Pacific Blue™ Annexin V/SYTOX™ AADvanced™ Apoptosis Kit, following the manufacturer's instructions. Viability is expressed as a percentage, with untreated controls set at 100%. […] Data are represented as mean±SD; *p<0.03;***p<0.0002.
Analysis of cell viability in explanted biopsies from the A431 cell lines was performed after 72 hours of ex vivo treatment. […] Cell viability was analysed using a flow cytometer with the Pacific Blue™ Annexin V/SYTOX™ AADvanced™ Apoptosis Kit, following the manufacturer's instructions. Viability is expressed as a percentage, with untreated controls set at 100%. […] Data are represented as mean±SD; **p<0.02.
To further substantiate these findings, an ex vivo test was conducted using explanted biopsies from the FaDu and A431 cell lines. These biopsies were generated by injecting the cells into immunocompromised mice, thereby creating a more intricate three-dimensional structure that closely mimics the tumour microenvironment. […] Following the 72-hour treatment period, cell viability was analysed using flow cytometry.

[6] = test system: FaDu xenografts; assay type: in vivo, mice; design: key to Loss of Straightening reflex / Loss of Cleaning / Loss of Curiosity / Loss of Reactivity / Loss of Spontaneous activity: untreated animal value = 0, plus treated animal value
Source text: (§2) The risk (intended as side effects) was estimated through the observation of behavioural parameters (impacting the behaviour itself, the locomotor system, muscle strength and nervous reflexes) and through the potential weight loss of the animal.
Data obtained by animal testing, considered in the context of the risk, are behavioural parameters and body weight loss at the end of experimentation.
The behavioural parameters monitored are listed below: • 1. Loss of Spontaneous activity • 2. Loss of Cleaning • 3. Loss of Curiosity • 4. Loss of Reactivity • 5. Loss of Straightening reflex • 6. Loss of Physical strength • 7. Impairment of Palpebral opening • 8. Palpebral reflex • 9. Tremors • 10. Pallor • 11. Stereotypies • 12. Passivity
The values of the parameters 1-8 are normalized as: “Not treated animal value” (always equal to 0)+“Treated animal value”.
The values of the parameters 9-12 are normalized as: “Not treated animal value”-“Treated animal value”.
The potential weight loss of the treated animals was also assessed.” Data were processed using the formula: 1−[“Body weight of treated animals (day of observation: 27)/body weight of untreated animals (day of observation: 19)]
Data were calculated as “Reduction in the size of tumour mass” by the formula: 1−[“Tumour mass size collected from treated animals (day of observation: 27)/Tumour mass size collected from untreated animals (day of observation: 19)]

[7] = test system: non-cancerous spheroids (MSC, HuDe); assay: 3D spheroids toxicity, Cell Titer-Glo 3D (ATP); assay type: cell-based, human; settings: 72 hours; EpigenAU/11 0.22 mg/ml, CDDP 15 μg/ml
Source text: Additionally, two 3D spheroids from non-cancerous cell lines were included in the study: • MSC (BM-derived Mesenchymal Stromal Cells): Multipotent stromal cells derived from bone marrow. • HuDe (Human Dermal Fibroblasts): Non-cancerous dermal fibroblast cells.

[8] = test system: bladder tumour organoid Bladder 41; assay: Tumour organoid viability with chemotherapeutics, CellTiter-Glo 3D; assay type: cell-based, human; settings: Bladder Cancer patient-derived tumour organoids; chemotherapy combined with EpigenAU/11
Protocol: as §1

[9] = test system: biopsies derived from the FaDu graft; assay: Genome-wide gene expression profiling, ex vivo; assay type: cell-based, human; settings: 6 hours; EpigenAU/11 50 mg/ml, cisplatin 150 μg/ml, alone and combined
[10] = test system: osteosarcoma spheroids (143B, SaOS-2, U-2 OS); assay: 3D spheroids toxicity, Cell Titer-Glo 3D (ATP); assay type: cell-based; settings: 72 hours; EpigenAU/11 0.22 mg/ml, CDDP 15 μg/ml
Protocol: The Cell Titer-Glo® 3D Viability Assay was used to quantify ATP as a marker of cell viability. Results are expressed as the survival ratio (%) between treated cells and their corresponding untreated controls.
In addition to the findings above, several partners contributed to the development of more complex in vitro models, including 3D spheroids, which better mimic the three-dimensional structure of tumours and their microenvironment.
The viability of both control and treated cells was assessed 72 hours after the start of treatment by quantifying ATP levels using the Cell Titer-Glo® 3D Viability Assay following the manufacturer's instructions.

[11] = design: species or system mice; settings: mouse, in vivo
Protocol: Furthermore, to better understand the potential systemic toxicity of the treatments, an Irwin test was conducted, evaluating a range of physiological and behavioural parameters, including general behaviour, CNS excitement, movement coordination, muscle tone, reflex responses, and autonomic signs.
Parameters assessed include general behaviour, central nervous system (CNS) excitement, movement coordination, muscle tone, reflex responses, and autonomic signs.
as §2

[12] = test system: FaDu xenografts; settings: for MITOSIS (amount of mitosis in 2.37 mm^2; 10x): H&E staining of excised tumours
Protocol: Tumour growth curve of FaDu xenografts in athymic mice over 27 days of treatment. […] Tumour volume was measured every other day. Data are represented as mean±SEM; *p<0.05; **p<0.02. One-way ANOVA followed by Fisher's LSD test was used for statistical analysis.
In this investigation, an in vivo trial utilizing FaDu cells was performed to explore this interaction.
All treatments commenced when tumours reached a volume of 0.1 cm^3.
The response in mice was evaluated using criteria akin to RECIST 1.1 guidelines.
For this purpose, immunocompromised mice bearing xenografted FaDu head and neck squamous carcinoma cells were included in the study once tumours reached a volume of 100 mm^3.

[13] = test system: FaDu, A431 and HuDe cells; assay: Intracellular pH (pHrodo Green AM); assay type: cell-based, human; settings: EpigenAU/11 0.66 mg/ml or HCl, one hour
Source text: Cells were labelled with pHrodo™ Green AM Intracellular pH Indicator according to manufacturers' instructions. pH values were normalized with respect to cell number, measured by Nuclear Mask Red staining.

## N.N.O=C([O-])C1(C(=O)[O-])CCC1.[Pt+2] [carboplatin]
[1]
  viability (ATP, untreated = 100%): 85.1%

## N.N.[Cl][Pt][Cl] [Cisplatin]
[2]
  cell death: around 25%
[3]
  MEAN tumour mass: 368 mg
[4]
  Cooperative Effect with EpigenAU/11: YES
[5]
  cell death: around 30%
[6]; 1−[body weight treated day 27/untreated day 19]
  Weight loss: 0.22
[6]; 1−[tumour mass size treated day 27/untreated day 19]
  Reduction in the size of tumour mass: 0.64
[6]; mouse, in vivo
  IN VIVO BENEFIT SCORE: 0.64
[6]; normalised risk parameter
  Impairment of Palpebral opening: 2.00
  Loss of Cleaning: 1.50
  Loss of Curiosity: 1.60
  Loss of Palpebral reflex: 1.20
  Loss of Physical strength: 1.30
  Loss of Reactivity: 1.40
  Loss of Spontaneous activity: 1.80
  Loss of Straightening reflex: 1.40
  Pallor: 2.00
  Passivity: 1.10
  Stereotypies: 0.00
  Tremors: 0.80
[6]; sum of risk parameters
  IN VIVO RISK SCORE: 16
[7]
  viability (ATP levels) of healthy spheroids: indiscriminately killed both cancerous and healthy cells
[8]
  Cooperative Effect with EpigenAU/11: YES
[9]
  modulation of cancer-related pathways (gene expression): comparable downregulatory effect across many of the same pathways
[10]
  viability (ATP levels) of cancerous spheroids: indiscriminately killed both cancerous and healthy cells
[11]
  reduction in overall biological functions: 30-40%
[12]; 27 days, cisplatin 2 mg/kg i.p. every two days
  tumour progression: stabilization of the disease
[12]
  MITOSIS (amount of mitosis in 2.37 mm^2; 10x): 14 (±8)
[12]; listed as cisplatin
  MITOSIS (amount of mitosis in 2.37 mm^2; 10x): 14
[12]; day of observation 27
  Size of tumor masses (Mean): 0.50
[12]; explanted after 27 days of treatment, five mice
  MEAN tumour mass: 454 mg
[12]; mouse, in vivo
  Body weight (Mean): 29.12

## Cl [HCl, hydrochloric acid]
[2]
  cell death: no significant signs of cell death
[5]
  cell death: no significant signs of cell death
[13]
  intracellular pH: no observable effects
